# In patent US12415794B2 (Edgewise Therapeutics, Inc., priority 2018, dated 2025):
# Molecular target: T1, cardiac myofibrils (myosin ATPase)
# T1 construct: frozen myofibril pellets obtained from cardiac tissue; from tissue
# Experiment: Cardiac Myofibril ATPase Assay (counter screen)
# Format: biochemical
# Conditions: myofibrils 1.0 mg/mL, KCl omitted, Table 5A
# Description: (§1) Overview: Myosin ATPase activity is assessed by using a coupled reaction system, in which ADP generated by the myosin ATPase function is coupled to the disappearance of NADH through the pyruvate kinase/lactate dehydrogenase (PK-LDH) system. ATPase activity produces ADP, which is used as a substrate for PK to produce pyruvate and regenerate ATP. The pyruvate is then used as a substrate by LDH to oxidize NADH to NAD+. The rate of the reaction is monitored through the time-dependent disappearance of NADH using absorbance at 340 nm. Inhibition of ATPase activity by the assayed compounds is indicated by a reduced rate of NADH loss, relative to vehicle-treated controls, over the experimental time window. To assess the selectivity of the assayed compounds for skeletal myofibrils, the compounds are counter-screened in cardiac myofibrils.
# Example 13: Cardiac Myofibril ATPase Assay
# Following example 11, the counter screen was done using frozen myofibril pellets obtained from cardiac tissue. The assay was done in the same manner as above, with the following notable exceptions: the final well concentration of myofibrils was 1.0 mg/mL and KCl was omitted from the recipe.
# Compounds of Table 1 to 3 were tested, and results of the assays appear in Tables 5a-5c herein. A=IC50 is less than or equal to 10 μM; B=IC50 is greater than 10 μM and less than 100 μM; C=IC50 is greater than 100 μM; and […].
# T1 sequence (P12883 whole entry): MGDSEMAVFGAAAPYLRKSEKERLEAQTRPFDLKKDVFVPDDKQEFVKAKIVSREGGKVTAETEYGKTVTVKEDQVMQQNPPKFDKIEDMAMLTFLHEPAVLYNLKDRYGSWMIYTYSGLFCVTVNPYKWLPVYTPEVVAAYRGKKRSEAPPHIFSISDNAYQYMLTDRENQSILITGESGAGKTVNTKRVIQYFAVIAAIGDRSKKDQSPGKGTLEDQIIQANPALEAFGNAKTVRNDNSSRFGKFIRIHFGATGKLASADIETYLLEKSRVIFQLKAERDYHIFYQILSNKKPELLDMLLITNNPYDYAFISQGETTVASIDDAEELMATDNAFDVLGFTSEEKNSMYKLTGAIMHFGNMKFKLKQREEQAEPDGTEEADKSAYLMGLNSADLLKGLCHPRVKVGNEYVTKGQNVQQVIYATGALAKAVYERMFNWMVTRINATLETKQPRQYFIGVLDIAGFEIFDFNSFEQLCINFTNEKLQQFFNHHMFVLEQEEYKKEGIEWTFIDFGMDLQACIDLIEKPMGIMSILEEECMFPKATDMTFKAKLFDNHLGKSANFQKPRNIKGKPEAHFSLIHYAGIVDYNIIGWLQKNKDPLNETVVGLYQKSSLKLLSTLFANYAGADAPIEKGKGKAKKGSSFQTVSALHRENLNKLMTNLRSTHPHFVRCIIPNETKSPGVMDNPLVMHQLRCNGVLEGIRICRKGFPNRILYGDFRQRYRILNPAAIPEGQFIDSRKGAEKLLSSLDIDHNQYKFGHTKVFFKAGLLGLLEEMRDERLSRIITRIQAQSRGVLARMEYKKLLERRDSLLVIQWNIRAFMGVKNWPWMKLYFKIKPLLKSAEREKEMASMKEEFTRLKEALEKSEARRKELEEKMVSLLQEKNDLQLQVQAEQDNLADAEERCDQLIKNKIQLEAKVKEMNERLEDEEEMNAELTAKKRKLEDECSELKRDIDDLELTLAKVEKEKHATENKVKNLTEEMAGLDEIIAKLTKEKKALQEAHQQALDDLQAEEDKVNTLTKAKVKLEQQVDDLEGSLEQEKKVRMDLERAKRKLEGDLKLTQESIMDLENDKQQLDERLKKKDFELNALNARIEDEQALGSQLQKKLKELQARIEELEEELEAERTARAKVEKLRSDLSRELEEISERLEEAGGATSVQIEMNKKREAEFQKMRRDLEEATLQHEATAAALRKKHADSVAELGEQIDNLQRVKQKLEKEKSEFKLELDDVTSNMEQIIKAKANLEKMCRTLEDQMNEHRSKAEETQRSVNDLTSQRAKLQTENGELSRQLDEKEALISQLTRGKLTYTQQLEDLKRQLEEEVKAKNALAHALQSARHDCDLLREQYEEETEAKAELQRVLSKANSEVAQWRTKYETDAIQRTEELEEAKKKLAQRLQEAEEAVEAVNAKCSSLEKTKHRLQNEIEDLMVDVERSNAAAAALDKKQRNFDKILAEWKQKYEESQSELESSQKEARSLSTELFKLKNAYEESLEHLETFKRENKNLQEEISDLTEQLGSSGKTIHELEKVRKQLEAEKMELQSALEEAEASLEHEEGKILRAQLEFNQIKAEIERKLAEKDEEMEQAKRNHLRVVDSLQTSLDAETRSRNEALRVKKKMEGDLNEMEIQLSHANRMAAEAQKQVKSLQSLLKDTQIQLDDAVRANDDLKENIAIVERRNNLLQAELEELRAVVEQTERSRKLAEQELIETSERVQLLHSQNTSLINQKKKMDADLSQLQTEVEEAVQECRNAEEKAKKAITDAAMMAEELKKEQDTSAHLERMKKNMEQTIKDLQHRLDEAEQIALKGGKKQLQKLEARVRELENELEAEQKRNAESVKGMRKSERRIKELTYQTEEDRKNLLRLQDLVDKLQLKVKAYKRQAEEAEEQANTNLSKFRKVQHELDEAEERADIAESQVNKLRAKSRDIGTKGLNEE
# T1 sequence (P08590 whole entry partner): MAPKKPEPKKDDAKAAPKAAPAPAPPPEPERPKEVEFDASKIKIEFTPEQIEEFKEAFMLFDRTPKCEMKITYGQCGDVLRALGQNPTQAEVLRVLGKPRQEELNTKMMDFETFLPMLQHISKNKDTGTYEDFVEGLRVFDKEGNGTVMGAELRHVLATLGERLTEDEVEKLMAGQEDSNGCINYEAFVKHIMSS
# T1 sequence (P10916 whole entry partner): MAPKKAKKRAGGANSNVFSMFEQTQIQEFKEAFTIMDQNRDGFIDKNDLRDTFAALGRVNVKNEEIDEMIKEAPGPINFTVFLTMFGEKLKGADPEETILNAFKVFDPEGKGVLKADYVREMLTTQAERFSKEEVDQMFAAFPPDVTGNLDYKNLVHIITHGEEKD
row,IC50,SMILES
1,> 100 µM,"CC[C@H](C)NC(=O)Cn1nc(-c2ccc(OC(F)F)nc2)ccc1=O [Compound I-9, (S)-N-(sec-butyl)-2-(3-(6-(difluoromethoxy)pyridin-3-yl)-6-oxopyridazin-1(6H)-yl)acetamide]"
2,> 100 µM,"O=C(Cn1nc(-c2ccc(OC(F)(F)F)nc2)ccc1=O)NCc1ccccc1Cl [Compound I-3, N-(2-chlorobenzyl)-2-(6-oxo-3-(6-(trifluoromethoxy)pyridin-3-yl)pyridazin-1(6H)-yl)acetamide]"
3,> 100 µM,"CCNC(=O)Cn1nc(-c2cnc(OC(F)F)cc2F)ccc1=O [Compound I-80, 2-(3-(6-(difluoromethoxy)-4-fluoropyridin-3-yl)-6-oxopyridazin-1(6H)-yl)-N-ethylacetamide]"
4,> 100 µM,"CCNC(=O)Cn1nc(-c2ccc(N3C[C@@H]4COCC3CO4)nc2)ccc1=O [Compound I-81, 2-(3-(6-((5R)-3,6-dioxa-8-azabicyclo[3.2.2]nonan-8-yl)pyridin-3-yl)-6-oxopyridazin-1(6H)-yl)-N-ethylacetamide]"

# Same assay, conditions: myofibrils 1.0 mg/mL, KCl omitted, Table 5C
row,IC50,SMILES
1,> 100 µM,"O=C(Cn1nc(-c2ccccc2)ccc1=O)NCCN1CCc2ccccc21 [IIIc-60, N-(2-(indolin-1-yl)ethyl)-2-(6-oxo-3-phenylpyridazin-1(6H)-yl)acetamide]"
2,> 100 µM,"O=C(Cn1nc(-c2ccc(F)cc2)ccc1=O)N1CCCC1 [IIIc-46, 6-(4-fluorophenyl)-2-(2-oxo-2-(pyrrolidin-1-yl)ethyl)pyridazin-3(2H)-one]"
3,> 100 µM,"Cc1cccnc1NC(=O)Cn1nc(-c2ccc(Cl)cc2)ccc1=O [IIIc-24, 2-(3-(4-chlorophenyl)-6-oxopyridazin-1(6H)-yl)-N-(3-methylpyridin-2-yl)acetamide]"
4,> 100 µM,"O=C(Cn1nc(-c2ccc(F)cc2)ccc1=O)Nc1ccccc1F [IIIc-45, N-(2-fluorophenyl)-2-(3-(4-fluorophenyl)-6-oxopyridazin-1(6H)-yl)acetamide]"
5,> 100 µM,"O=C(Cn1nc(-c2ccc(Cl)cc2)ccc1=O)NC1CC1 [IIIc-36, 2-(3-(4-chlorophenyl)-6-oxopyridazin-1(6H)-yl)-N-cyclopropylacetamide]"
6,> 100 µM,"COc1ccc(-c2ccc(=O)n(CC(=O)N3CCC(C(N)=O)CC3)n2)cc1 [IIIc-11, 1-(2-(3-(4-methoxyphenyl)-6-oxopyridazin-1(6H)-yl)acetyl)piperidine-4-carboxamide]"
7,> 100 µM,"COc1ccc(OC)c(NC(=O)Cn2nc(-c3ccc(Cl)cc3)ccc2=O)c1 [IIIc-29, 2-(3-(4-chlorophenyl)-6-oxopyridazin-1(6H)-yl)-N-(2,5-dimethoxyphenyl)acetamide]"
8,> 100 µM,"O=C(Cn1nc(-c2ccc(Cl)cc2)ccc1=O)NC1CCCC1 [IIIc-37, 2-(3-(4-chlorophenyl)-6-oxopyridazin-1(6H)-yl)-N-cyclopentylacetamide]"
9,> 100 µM,"O=C(Cn1nc(-c2ccc(Br)cc2)ccc1=O)NC1CCCC1 [IIIc-41, 2-(3-(4-bromophenyl)-6-oxopyridazin-1(6H)-yl)-N-cyclopentylacetamide]"
10,> 100 µM,"O=C(Cn1nc(-c2ccc(Cl)cc2)ccc1=O)NCc1cccc(Cl)c1 [IIIc-34, N-(3-chlorobenzyl)-2-(3-(4-chlorophenyl)-6-oxopyridazin-1(6H)-yl)acetamide]"
11,> 100 µM,"CCNC(=O)Cn1nc(-c2ccc(OCC3(F)COC3)cc2)ccc1=O [IIIa-27, N-ethyl-2-(3-(4-((3-fluorooxetan-3-yl)methoxy)phenyl)-6-oxopyridazin-yl)acetamide]"
12,> 100 µM,"O=C(Cn1nc(-c2ccccc2)ccc1=O)N(C1=CCCCC1)C1CC1 [IIIc-59, N-(cyclohex-1-en-1-yl)-N-cyclopropyl-2-(6-oxo-3-phenylpyridazin-1(6H)-yl)acetamide]"
13,> 100 µM,"O=C(Cn1nc(-c2ccc(Cl)cc2)ccc1=O)NC1CCCCC1 [IIIc-39, 2-(3-(4-chlorophenyl)-6-oxopyridazin-1(6H)-yl)-N-cyclohexylacetamide]"
14,> 100 µM,"COc1ccc(-c2ccc(=O)n(CC(=O)N3CCCC3)n2)cc1 [IIIc-10, 6-(4-methoxyphenyl)-2-(2-oxo-2-(pyrrolidin-1-yl)ethyl)pyridazin-3(2H)-one]"
15,> 100 µM,"CCOc1ccc(-c2ccc(=O)n(CC(=O)N3CCCc4ccccc43)n2)cc1 [IIIc-8, 2-(2-(3,4-dihydroquinolin-1(2H)-yl)-2-oxoethyl)-6-(4-ethoxyphenyl)pyridazin-3(2H)-one]"
16,> 100 µM,"COc1ccc(-c2ccc(=O)n(CC(=O)N3CCCC3)n2)cc1OC [IIIc-9, 6-(3,4-dimethoxyphenyl)-2-(2-oxo-2-(pyrrolidin-1-yl)ethyl)pyridazin-3(2H)-one]"
17,> 100 µM,"CC(C)(CNC(=O)Cn1nc(-c2ccccc2)ccc1=O)c1ccccc1F [IIIc-61, N-(2-(2-fluorophenyl)-2-methylpropyl)-2-(6-oxo-3-phenylpyridazin-1(6H)-yl)acetamide]"
18,> 100 µM,"O=C(Cn1nc(-c2ccc(Cl)cc2)ccc1=O)NCc1ccccc1Cl [IIIc-14, N-(2-chlorobenzyl)-2-(3-(4-chlorophenyl)-6-oxopyridazin-1(6H)-yl)acetamide]"
19,> 100 µM,"O=C(Cn1nc(-c2ccc(Br)cc2)ccc1=O)NC1CCCCC1 [IIIc-42, 2-(3-(4-bromophenyl)-6-oxopyridazin-1(6H)-yl)-N-cyclohexylacetamide]"
20,> 100 µM,"COc1ccc(NC(=O)Cn2nc(-c3ccc(Cl)cc3)ccc2=O)c(OC)c1 [IIIc-25, 2-(3-(4-chlorophenyl)-6-oxopyridazin-1(6H)-yl)-N-(2,4-dimethoxyphenyl)acetamide]"
21,> 100 µM,"O=C(Cn1nc(-c2ccc(F)cc2)ccc1=O)NCc1cccc(F)c1 [IIIc-43, N-(3-fluorobenzyl)-2-(3-(4-fluorophenyl)-6-oxopyridazin-1(6H)-yl)acetamide]"
22,> 100 µM,"COc1ccc(-c2ccc(=O)n(CC(=O)NCC(C)C)n2)c(F)c1 [IIIb-42, 2-(3-(2-fluoro-4-methoxyphenyl)-6-oxopyridazin-1(6H)-yl)-N-isobutylacetamide]"
23,> 100 µM,"CC(C)NC(=O)Cn1nc(-c2ccc(Cl)cc2)ccc1=O [IIIc-15, 2-(3-(4-chlorophenyl)-6-oxopyridazin-1(6H)-yl)-N-isopropylacetamide]"
24,> 100 µM,"O=C(Cn1nc(-c2ccc(Cl)cc2)ccc1=O)Nc1ccc2cc[nH]c2c1 [IIIc-21, 2-(3-(4-chlorophenyl)-6-oxopyridazin-1(6H)-yl)-N-(1H-indol-6-yl)acetamide]"
25,> 100 µM,"COc1ccc(Cl)cc1NC(=O)Cn1nc(-c2ccc(Cl)cc2)ccc1=O [IIIc-26, N-(5-chloro-2-methoxyphenyl)-2-(3-(4-chlorophenyl)-6-oxopyridazin-1(6H)-yl)acetamide]"

# Molecular target: skeletal myofibrils (myosin ATPase)
# Experiment: Skeletal Myofibril ATPase Assay
# Format: biochemical
# Conditions: Table 4A
# Description: FIG. 7 depicts the buffer preparation procedures of Buffer A and Buffer B for the skeletal myofibril ATPase assay described in Example 12. Buffers were stored on ice until use.
# Example 12: Skeletal Myofibril ATPase Assay
# as §1
# Materials: The following stock solutions and reagents were used in the Skeletal Myofibril ATPase Assay:
# Stock Solutions of pCa buffer. Combine PIPES, CaCl2, and EGTA solutions with 70 mL of water. Adjust pH to 7.0 and bring final volume to 100 mL.
# Skeletal Myofibril ATPase Assay Procedure: BSA, ATP, NADH, PEP, and DTT solutions were thawed at room temperature, then transferred to ice. Pellet-frozen myofibrils were transferred with approximately twice the required volume into a sufficiently large tube and capped. Myofibrils were thawed by rolling in a water bath for approximately 15 min at room temperature and cooled on ice. Buffers A and B were prepared by adjusting volumes as necessary for required number of wells and stored on ice. 0.5 μL of the compounds to be assayed were added into wells. 25 μL of Buffer A was dispensed into the wells, followed by 25 μL of Buffer B. The wells were measured for absorbance at 340 nm, using a kinetic protocol in which the wells are read every 1.5-2 min for 45 min. The slope of the data was approximated by subtracting the minimum absorbance value from the maximum value for each well. This was accomplished either in the SoftMax Pro software or in a spreadsheet program such as Excel. Using GraphPad Prism 8.0, the data was normalized by assigning a value of 100% to the 1% DMSO vehicle wells. Typically, a normalized 0% value was simply assigned to a (Max−Min) value of 0. The normalized data was fit to a Four Parameter Logistic sigmoidal equation, constraining the bottom to be 0 or greater. Compounds of Table 1, 2, and 3 were tested and results of the assay appear in Tables 4a-4c. A=IC50 is less than or equal to 10 μM; B=IC50 is greater than 10 μM and less than 100 μM; C=IC50 is greater than 100 μM.
row,IC50,SMILES
1,10 to 100 µM,"CCNC(=O)Cn1nc(-c2cnc(OCCOC(F)(F)F)nc2)ccc1=O [Compound I-49, N-ethyl-2-(6-oxo-3-(2-(2-(trifluoromethoxy)ethoxy)pyrimidin-5-yl)pyridazin-1(6H)-yl)acetamide]"
2,10 to 100 µM,"O=C(Cn1nc(-c2ccc(NC34CC(C3)C4)nc2)ccc1=O)N1CCC1 [Compound I-39, 2-(2-(azetidin-1-yl)-2-oxoethyl)-6-(6-(bicyclo[1.1.1]pentan-1-ylamino)pyridin-3-yl)pyridazin-3(2H)-one]"
3,10 to 100 µM,"CCNC(=O)Cn1nc(-c2cnc(NC34CC(O)(C3)C4)nc2)ccc1=O [Compound I-42, N-ethyl-2-(3-(2-((3-hydroxybicyclo[1.1.1]pentan-1-yl)amino)pyrimidin-5-yl)-6-oxopyridazin-1(6H)-yl)acetamide]"
4,10 to 100 µM,"CCNC(=O)Cn1nc(-c2ccc(N3CC(COC(F)(F)F)C3)nc2)ccc1=O [Compound I-40, N-ethyl-2-(6-oxo-3-(6-(3-((trifluoromethoxy)methyl)azetidin-1-yl)pyridin-3-yl)pyridazin-1(6H)-yl)acetamide]"
5,10 to 100 µM,"CCNC(=O)Cn1nc(-c2ccc(NC34CCC(CC3)CC4)nc2)ccc1=O [Compound I-41, 2-(3-(6-(bicyclo[2.2.2]octan-1-ylamino)pyridin-3-yl)-6-oxopyridazin-1(6H)-yl)-N-ethylacetamide]"
